From patent US6589580B1, “Method and apparatus for application of surface treatment to food products” (Kraft Foods Holdings, Inc., priority 1999, dated 2003)

Test system: mold growth on cheese chunks
Experiment: Mold growth on refrigerated cheese chunks exposed to ambient air after surface treatment
Experimental: In one particular embodiment, the material applied comprises a suspension of natamycin in an aqueous saline solution. […] In a preferred embodiment of the invention, the process applies an average surface concentration of about 1.0 to 1.1 μg/cm^2 to ensure that an adequate concentration is applied over substantially the entire exterior surface. Application of natamycian at these average surface concentrations with the apparatus of the invention ensures that substantially all of the cheese chunk surface area has a surface concentration of at least about 0.5 μg/cm^2.
The efficacy of an antimycotic agent may be measured in terms of the number of days during which mold growth is retarded in treated samples, relative to untreated control samples. Generally, if mold growth is retarded by 45 days or more, the antimycotic may be considered effective. The absolute length of time during which mold growth is delayed depends on the mold load in the ambient air, in addition to effects of antimycotic agents.

Compound: C[C@@H]1C/C=C/C=C/C=C/C=C/[C@H](O[C@@H]2O[C@H](C)[C@@H](O)[C@H](N)[C@@H]2O)C[C@@H]2O[C@](O)(C[C@@H](O)C[C@H]3O[C@@H]3/C=C/C(=O)O1)C[C@H](O)[C@H]2C(=O)O [natamycin]
- number of days by which mold growth is retarded (relative to untreated control samples) (preferred embodiment (average surface concentration about 1.0 to 1.1 μg/cm^2), refrigerated at 35° F. to 45° F., exposed to ambient air): over 45 days
- time cheese chunks remained mold-free (preferred embodiment, in some cases, refrigerated at 35° F. to 45° F., exposed to ambient air): over 200 days
- surface concentration level found effective in preventing mold growth (refrigerated cheese chunks exposed to ambient air for extended periods, natamycin suspension in aqueous saline solution applied by spray): about 0.5 μg/cm^2
